Results as given in the supplement of paper PMC11208160.

Test: recombinant barcode read abundance after kanamycin selection (control-corrected) (log10(CPM+1)); higher = more efficient recombination; sequences stand for … in AGTGCAGAGAAAATCGGCCAGTTTTCTCTGCCTGCAGTCCGCATGCCGT…AGATTTATGCAGCGGACTGCCTTTCTCCCAAAGTGATAAACCGGACAGTATCATGGACCGGTTTTCCCGGTAATCCGTATTTGCAAGGTTGGTTTCACT; site = the 11-nt target
Procedure, shortened: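 The screen was pooled in E. coli and paired targets with IS621 bridge RNA target-binding loops. Recombination efficiency is taken from barcode counts per million at recombinant junctions, averaged and adjusted against the control. Values, in the form log10(CPM+1), come from duplicate plating on chloramphenicol/ampicillin LB agar or on chloramphenicol/ampicillin/kanamycin with 0.1 mM IPTG.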
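Also: IS621 recombinase and bridge RNA in Escherichia coli cells.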

| Sequence | recombinant barcode read abundance (log10) |
| --- | --- |
| TTAGGTCCTTGGGTTCTAACCTGTTGCAG (site TTAGATCCTAT) | 0.182 |
| TTAGGTCCTTGGGTTCTAACCTGTTGCAG (site TTAGGTCCTCT) | 2.5 |
| TTAGTAACTTGGGTTCTAACCTGTTGCCT (site CTAGTACCTAG) | 0.0115 |
| TTAGTAACTTGGGTTCTAACCTGTTGCCT (site TTAGTAACTAG) | 1.21 |
| TTAGTACCTTGGGTTCTAACCTGTTGCCT (site TTAGTACCTAG) | 2.55 |
| TTAGTACCTTGGGTTCTAACCTGTTGCCT (site TTAGTCCCTAG) | 0.218 |
| TTAGTACCTTGGGTTCTAACCTGTTGCCT (site TTAGTGCCTAG) | 0.135 |
| TTAGTACCTTGGGTTCTAACCTGTTGCCT (site TTAGTTCCTAG) | 0.369 |
| TTAGTCCCTTGGGTTCTAACCTGTTGCCG (site CTAGTCCCTCG) | 1.09 |
| TTAGTCCCTTGGGTTCTAACCTGTTGCCG (site TTAGTCCCTCG) | 2.14 |
| TTAGTGCCTTGGGTTCTAACCTGTTGCCT (site TTAGTACCTAG) | 1.55 |
| TTAGTGCCTTGGGTTCTAACCTGTTGCCT (site TTAGTCCCTAG) | 0.0383 |
| TTAGTGCCTTGGGTTCTAACCTGTTGCCT (site TTAGTGCCTAG) | 2.14 |
| TTAGTGCCTTGGGTTCTAACCTGTTGCCT (site TTAGTTCCTAG) | 0.0759 |
| TTAGTTCCTTGGGTTCTAACCTGTTGCCT (site TTAGTACCTAG) | 0.146 |
| TTAGTTCCTTGGGTTCTAACCTGTTGCCT (site TTAGTCCCTAG) | 0.186 |
| TTAGTTCCTTGGGTTCTAACCTGTTGCCT (site TTAGTGCCTAG) | 0 |
| TTAGTTCCTTGGGTTCTAACCTGTTGCCT (site TTAGTTCCTAG) | 0.634 |
| TTATAAGCTTGGGTTCTAACCTGTTGCCA (site GTATGAGCTTG) | 0.0336 |
| TTATAAGCTTGGGTTCTAACCTGTTGCCA (site TTATAAGCTTG) | 0.269 |
| TTATTCACTTGGGTTCTAACCTGTTGCCT (site TCATTGACTAG) | 0.0352 |
| TTATTCACTTGGGTTCTAACCTGTTGCCT (site TTATTCACTAG) | 1.48 |
| TTCAAGTCTTGGGTTCTAACCTGTTGCCT (site TTCAAGACTAG) | 0.102 |
| TTCAAGTCTTGGGTTCTAACCTGTTGCCT (site TTCAAGCCTAG) | 0.198 |
| TTCAAGTCTTGGGTTCTAACCTGTTGCCT (site TTCAAGGCTAG) | 0.0708 |
| TTCAAGTCTTGGGTTCTAACCTGTTGCCT (site TTCAAGTCTAG) | 0.33 |

| Sequence | recombinant barcode read abundance (log10) |
| --- | --- |
| TTCACGTCTTGGGTTCTAACCTGTTGCCT (site TTCACGTCTAG) | 0.202 |
| TTCACGTCTTGGGTTCTAACCTGTTGCCT (site TTCATGTCTAG) | 0.0406 |
| TTCAGACCTTGGGTTCTAACCTGTTGCCT (site AGGTACACTGT) | 0.0824 |
| TTCAGACCTTGGGTTCTAACCTGTTGCCT (site TTCAGACCTAG) | 0.912 |
| TTCCAAACTTGGGTTCTAACCTGTTGCGG (site TTCCAAACTCC) | 1.31 |
| TTCCAAACTTGGGTTCTAACCTGTTGCGG (site TTCCACACTCC) | 0.193 |
| TTCCTATCTTGGGTTCTAACCTGTTGCCT (site TACCTATCTAG) | 0.221 |
| TTCCTATCTTGGGTTCTAACCTGTTGCCT (site TCCCTATCTAG) | 0.071 |
| TTCCTATCTTGGGTTCTAACCTGTTGCCT (site TGCCTATCTAG) | 0.0749 |
| TTCCTATCTTGGGTTCTAACCTGTTGCCT (site TTCCTATCTAG) | 0.354 |
| TTCGAGTCTTGGGTTCTAACCTGTTGCGG (site TGCGAGTCTAC) | 0.0798 |
| TTCGAGTCTTGGGTTCTAACCTGTTGCGG (site TTCGAGTCTCC) | 1.91 |
| TTCGCGCCTTGGGTTCTAACCTGTTGCCT (site TTCACGCCTAG) | 0.0251 |
| TTCGCGCCTTGGGTTCTAACCTGTTGCCT (site TTCCCGCCTAG) | 0.144 |
| TTCGCGCCTTGGGTTCTAACCTGTTGCCT (site TTCGCGCCTAG) | 0.134 |
| TTCGCGCCTTGGGTTCTAACCTGTTGCCT (site TTCTCGCCTAG) | 0.176 |
| TTCGGGCCTTGGGTTCTAACCTGTTGCCT (site ATCGGGCCTAG) | 0.0878 |
| TTCGGGCCTTGGGTTCTAACCTGTTGCCT (site CTCGGGCCTAG) | 0.0465 |
| TTCGGGCCTTGGGTTCTAACCTGTTGCCT (site GTCGGGCCTAG) | 0.0582 |
| TTCGGGCCTTGGGTTCTAACCTGTTGCCT (site TTCGGGCCTAG) | 0.169 |
| TTCTAGTCTTGGGTTCTAACCTGTTGCTA (site ACAAGACCTAT) | 0.0562 |
| TTCTAGTCTTGGGTTCTAACCTGTTGCTA (site TTCTAGTCTTA) | 0.416 |
| TTCTGCGCTTGGGTTCTAACCTGTTGCCT (site TTCTGAGCTAG) | 0.0215 |
| TTCTGCGCTTGGGTTCTAACCTGTTGCCT (site TTCTGCGCTAG) | 1.2 |
| TTCTGCGCTTGGGTTCTAACCTGTTGCCT (site TTCTGGGCTAG) | 0.0626 |
| TTCTGCGCTTGGGTTCTAACCTGTTGCCT (site TTCTGTGCTAG) | 0.191 |

| Sequence | recombinant barcode read abundance (log10) |
| --- | --- |
| TTCTGGGCTTGGGTTCTAACCTGTTGCCT (site TTCTGAGCTAG) | 0.172 |
| TTCTGGGCTTGGGTTCTAACCTGTTGCCT (site TTCTGCGCTAG) | 0.0493 |
| TTCTGGGCTTGGGTTCTAACCTGTTGCCT (site TTCTGGGCTAG) | 0 |
| TTCTGGGCTTGGGTTCTAACCTGTTGCCT (site TTCTGTGCTAG) | 0.137 |
| TTGAAACCTTGGGTTCTAACCTGTTGCCT (site GACGCCTCTGC) | 0.0146 |
| TTGAAACCTTGGGTTCTAACCTGTTGCCT (site TTGAAACCTAG) | 1.04 |
| TTGAGGCCTTGGGTTCTAACCTGTTGCCT (site ATGAGGCCTAG) | 0.059 |
| TTGAGGCCTTGGGTTCTAACCTGTTGCCT (site CTGAGGCCTAG) | 0.0268 |
| TTGAGGCCTTGGGTTCTAACCTGTTGCCT (site GTGAGGCCTAG) | 0.0327 |
| TTGAGGCCTTGGGTTCTAACCTGTTGCCT (site TTGAGGCCTAG) | 0.0305 |
| TTGAGTCCTTGGGTTCTAACCTGTTGCCT (site TTGAGTCCTAG) | 1.04 |
| TTGAGTCCTTGGGTTCTAACCTGTTGCCT (site TTGGGTCCTAC) | 0.319 |
| TTGATAGCTTGGGTTCTAACCTGTTGCTA (site ACCGCGTCTAT) | 0.174 |
| TTGATAGCTTGGGTTCTAACCTGTTGCTA (site TTGATAGCTTA) | 0.203 |
| TTGCAAACTTGGGTTCTAACCTGTTGCCT (site TTGCAAACTAG) | 0.501 |
| TTGCAAACTTGGGTTCTAACCTGTTGCCT (site TTGCCAACTAG) | 0.0256 |
| TTGCAAACTTGGGTTCTAACCTGTTGCCT (site TTGCGAACTAG) | 0.0337 |
| TTGCAAACTTGGGTTCTAACCTGTTGCCT (site TTGCTAACTAG) | 0.0349 |
| TTGCGAACTTGGGTTCTAACCTGTTGCAG (site GACGCGGCTAG) | 0.0589 |
| TTGCGAACTTGGGTTCTAACCTGTTGCAG (site TTGCGAACTCT) | 0.455 |
| TTGCGAACTTGGGTTCTAACCTGTTGCCT (site TTGCAAACTAG) | 0.0904 |
| TTGCGAACTTGGGTTCTAACCTGTTGCCT (site TTGCCAACTAG) | 0.269 |
| TTGCGAACTTGGGTTCTAACCTGTTGCCT (site TTGCGAACTAG) | 0.868 |
| TTGCGAACTTGGGTTCTAACCTGTTGCCT (site TTGCTAACTAG) | 0.0519 |
| TTGCTAACTTGGGTTCTAACCTGTTGCCT (site TTGCAAACTAG) | 0.0817 |
